Source: the supplement of paper PMC10307832

Tests used:
Assay in all cases: relative viability (nuclei count vs DMSO), 5 days (fraction); higher = more cells survive
AZD8055 + Lapatinib = compound: COc1ccc(-c2ccc3c(N4CCOC[C@@H]4C)nc(N4CCOC[C@@H]4C)nc3n2)cc1CO [AZD8055] + CS(=O)(=O)CCNCc1ccc(-c2ccc3ncnc(Nc4ccc(OCc5cccc(F)c5)c(Cl)c4)c3c2)o1 [Lapatinib] (partner 2 µM)
How it was run: (§1)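 Relative viability was taken as the ratio of nuclei in treated wells to nuclei in vehicle wells. Lung cancer cell lines in 1536-well plates received compounds by pin tool one day after seeding, either one drug alone or a fixed anchor-drug dose plus five library-drug doses (not always all listed) in √10 steps. Nuclei were counted on 4× images after 5 days of treatment, and values are medians of duplicate plates.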

AZD8055 + Crizotinib = compound: COc1ccc(-c2ccc3c(N4CCOC[C@@H]4C)nc(N4CCOC[C@@H]4C)nc3n2)cc1CO [AZD8055] + C[C@@H](Oc1cc(-c2cnn(C3CCNCC3)c2)cnc1N)c1c(Cl)ccc(F)c1Cl [Crizotinib] (partner 1 µM)
How it was run: as §1

AZD8055 + Dasatinib = compound: COc1ccc(-c2ccc3c(N4CCOC[C@@H]4C)nc(N4CCOC[C@@H]4C)nc3n2)cc1CO [AZD8055] + Cc1nc(Nc2ncc(C(=O)Nc3c(C)cccc3Cl)s2)cc(N2CCN(CCO)CC2)n1 [Dasatinib] (partner 0.075 µM)
How it was run: as §1

AZD8055 + Pemetrexed = compound: COc1ccc(-c2ccc3c(N4CCOC[C@@H]4C)nc(N4CCOC[C@@H]4C)nc3n2)cc1CO [AZD8055] + Nc1nc2[nH]cc(CCc3ccc(C(=O)N[C@@H](CCC(=O)O)C(=O)O)cc3)c2c(=O)[nH]1 [Pemetrexed] (partner 0.2 µM)
How it was run: as §1

| Cell Line | relative viability (AZD8055 + Lapatinib; first compound 0.01 µM) | relative viability (AZD8055 + Lapatinib; first compound 0.03162 µM) | relative viability (AZD8055 + Lapatinib; first compound 0.1 µM) | relative viability (AZD8055 + Lapatinib; first compound 0.3162 µM) | relative viability (AZD8055 + Lapatinib; first compound 1 µM) | relative viability (AZD8055 + Crizotinib; first compound 0.01 µM) | relative viability (AZD8055 + Crizotinib; first compound 0.03162 µM) | relative viability (AZD8055 + Crizotinib; first compound 0.1 µM) | relative viability (AZD8055 + Crizotinib; first compound 0.3162 µM) | relative viability (AZD8055 + Crizotinib; first compound 1 µM) | relative viability (AZD8055 + Dasatinib; first compound 0.01 µM) | relative viability (AZD8055 + Dasatinib; first compound 0.03162 µM) | relative viability (AZD8055 + Dasatinib; first compound 0.1 µM) | relative viability (AZD8055 + Dasatinib; first compound 0.3162 µM) | relative viability (AZD8055 + Dasatinib; first compound 1 µM) | relative viability (AZD8055 + Pemetrexed; first compound 0.01 µM) | relative viability (AZD8055 + Pemetrexed; first compound 0.03162 µM) | relative viability (AZD8055 + Pemetrexed; first compound 0.1 µM) | relative viability (AZD8055 + Pemetrexed; first compound 0.3162 µM) | relative viability (AZD8055 + Pemetrexed; first compound 1 µM) |
| --- | --- | --- | --- | --- | --- | --- | --- | --- | --- | --- | --- | --- | --- | --- | --- | --- | --- | --- | --- | --- |
| LU99A | 0.824 | 0.458 | 0.329 | 0.218 | 0.228 | 0.517 | 0.329 | 0.234 | 0.233 | 0.232 | 0.432 | 0.324 | 0.314 | 0.173 | 0.268 | 0.227 | 0.211 | 0.235 | 0.177 | 0.169 |
| NCI-H647 | 1.15 | 0.565 | 0.478 | 0.192 | 0.207 | 1 | 0.619 | 0.445 | 0.303 | 0.177 | 0.179 | 0.136 | 0.132 | 0.0579 | 0.144 | 0.207 | 0.155 | 0.133 | 0.166 | 0.122 |
| A-427 | 1.12 | 1.03 | 0.865 | 0.665 | 0.546 | 1.03 | 0.849 | 0.786 | 0.438 | 0.403 | 0.666 | 0.632 | 0.572 | 0.281 | 0.339 | 1.04 | 0.895 | 0.835 | 0.555 | 0.587 |
| COR-L 105 | 0.353 | 0.284 | 0.318 | 0.346 | 0.389 | 0.807 | 0.875 | 0.706 | 0.465 | 0.292 | 0.359 | 0.281 | 0.23 | 0.2 | 0.226 | 1.3 | 1.16 | 1.29 | 0.664 | 0.485 |
| NCI-H2126 | 0.653 | 0.679 | 0.615 | 0.453 | 0.425 | 0.997 | 1.02 | 0.926 | 0.617 | 0.494 | 0.535 | 0.5 | 0.464 | 0.281 | 0.316 | 0.693 | 0.622 | 0.649 | 0.579 | 0.401 |
| NCI-H460 | 1.72 | 0.629 | 0.43 | 0.137 | 0.0984 | 1.05 | 0.654 | 0.818 | 0.106 | 0.0777 | 0.554 | 0.365 | 0.213 | 0.0862 | 0.0669 | 0.0514 | 0.0565 | 0.0535 | 0.0755 | 0.0693 |
| SK-LU-1 | 0.866 | 0.761 | 0.487 | 0.376 | 0.332 | 0.743 | 0.767 | 0.335 | 0.475 | 0.376 | 0.163 | 0.161 | 0.136 | 0.113 | 0.121 | 1.09 | 0.874 | 0.69 | 0.444 | 0.371 |
| NCI-H322M | 0.536 | 0.551 | 0.51 | 0.5 | 0.466 | 0.868 | 1.03 | 0.825 | 0.796 | 0.478 | 0.259 | 0.265 | 0.251 | 0.246 | 0.249 | 0.655 | 0.689 | 0.622 | 0.609 | 0.483 |
| EKVX | 0.193 | 0.181 | 0.155 | 0.132 | 0.132 | 1.21 | 0.943 | 0.81 | 0.524 | 0.393 | 0.443 | 0.615 | 0.419 | 0.317 | 0.263 | 0.476 | 0.436 | 0.389 | 0.322 | 0.289 |
| NCI-H1734 | 1.17 | 0.789 | 0.57 | 0.308 | 0.242 | 0.734 | 0.587 | 0.472 | 0.256 | 0.282 | 0.563 | 0.366 | 0.318 | 0.152 | 0.162 | 0.45 | 0.375 | 0.41 | 0.385 | 0.323 |
| NCI-H520 | 0.716 | 0.344 | 0.265 | 0.142 | 0.167 | 0.58 | 0.53 | 0.37 | 0.195 | 0.194 | 0.142 | 0.13 | 0.15 | 0.14 | 0.171 | 0.636 | 0.307 | 0.245 | 0.182 | 0.144 |
| EPLC-272H | 0.735 | 0.75 | 0.549 | 0.471 | 0.459 | 0.865 | 0.739 | 0.498 | 0.494 | 0.37 | 0.333 | 0.221 | 0.173 | 0.109 | 0.128 | 0.361 | 0.363 | 0.369 | 0.321 | 0.331 |
| UMC-11 | 0.832 | 0.573 | 0.578 | 0.276 | 0.282 | 0.543 | 0.535 | 0.321 | 0.29 | 0.189 | 0.521 | 0.381 | 0.302 | 0.252 | 0.224 | 0.76 | 0.629 | 0.525 | 0.302 | 0.264 |
| NCI-H1792 | 1.02 | 0.838 | 0.808 | 0.15 | 0.131 | 0.927 | 0.82 | 0.82 | 0.173 | 0.157 | 0.844 | 0.667 | 0.583 | 0.321 | 0.237 | 0.764 | 0.343 | 0.193 | 0.108 | 0.108 |
| NCI-H1993 | 0.685 | 0.766 | 0.75 | 0.668 | 0.672 | 0.819 | 0.688 | 0.59 | 0.588 | 0.609 | 0.528 | 0.448 | 0.505 | 0.524 | 0.542 | 0.519 | 0.542 | 0.459 | 0.434 | 0.473 |
| NCI-H596 | 1 | 0.682 | 0.661 | 0.535 | 0.463 | 1 | 0.78 | 0.624 | 0.322 | 0.423 | 0.594 | 0.516 | 0.468 | 0.286 | 0.301 | 0.452 | 0.456 | 0.409 | 0.402 | 0.443 |
